Test results taken from patent US20100144743A1, “COMPOSITIONS AND METHODS FOR INHIBITION OF TYROSINE KINASES” (BOARD OF REGENTS, THE UNIVERSITY OF TEXAS SYSTEM, priority 2006, published 2010).
pEC50: −log10 of the molar value. Where “and” joins values, the source holds several entries; their conditions need not be identical. Identical values can stand only once. Like-named read-outs stand apart in the source and are kept apart here.

What was measured:
[1] = system: C6#4 cells
[2] = system: HIF-1; test: HIF-1 GFP/DsRFP expression (G/R) in C6#4 cells stimulated by CoCl2; assay type: cell-based

COc1cc(OC)cc(-c2cnc3c(NCC4CC4)nccn23)c1 [LG2-102]
pEC50 ([1]; read-out: WST-1 (EC-50)): 4.28 | pEC50 ([2]; read-out: G/R (EC-50)): 4.43

CC(=O)c1cccc(-c2cnc3c(Nc4ccc(N5CCOCC5)cc4)nccn23)c1 [LG2-81]
pEC50 ([1]; read-out: WST-1 (EC-50)): 4.41 | pEC50 ([1]; read-out: WST-1 (EC-50) 1 ex): 4.49 | pEC50 ([1]; read-out: WST-1 (EC-50) 2 ex): 4.40 | pEC50 ([1]; read-out: WST-1 (EC-50) 3 ex): 4.36 | pEC50 ([1]; read-out: WST-1 (EC-50) Mean): 4.41 | G/R:WST-1 Ratio Mean [2]: 3.7 | pEC50 ([2]; read-out: G/R (EC-50)): 4.98 | pEC50 ([2]; read-out: G/R (EC-50) 1 ex): 5.06 | pEC50 ([2]; read-out: G/R (EC-50) 2 ex): 4.91 | pEC50 ([2]; read-out: G/R (EC-50) 3 ex): 4.98 | pEC50 ([2]; read-out: G/R (REC-50) Mean): 4.98

O=C(NCCO)c1cccc(-c2cnc3c(NCc4cccs4)nccn23)c1 [LG2-98]
pEC50 ([2]; C6#4 cells, 24 h exposure, GFP normalized to RFP, Table 2, read-out: G/R (EC-50)): 4.69

COc1cc(-c2cnc3c(Nc4ccccc4)nccn23)ccc1O [LG2-62]
pEC50 ([1]; read-out: WST-1 (EC-50)): 4.52 | pEC50 ([1]; read-out: WST-1 (EC-50) 1 ex): 4.71 | pEC50 ([1]; read-out: WST-1 (EC-50) 2 ex): 4.36 | pEC50 ([1]; read-out: WST-1 (EC-50) 3 ex): 4.57 | pEC50 ([1]; read-out: WST-1 (EC-50) Mean): 4.52 | G/R:WST-1 Ratio Mean [2]: 1.5 and 1.533 | pEC50 ([2]; read-out: G/R (EC-50)): 4.72 | pEC50 ([2]; read-out: G/R (EC-50) 1 ex): 4.87 | pEC50 ([2]; read-out: G/R (EC-50) 2 ex): 4.61 | pEC50 ([2]; read-out: G/R (EC-50) 3 ex): 4.72 | pEC50 ([2]; read-out: G/R (REC-50) Mean): 4.72

CC(C)c1ccc(Nc2nccn3c(-c4cccc(O)c4)cnc23)cc1 [LG2-65]
influence on C6#4 cells ([1]; concentration 200 μM): doesn't influence | pEC50 ([1]; read-out: WST-1 (EC-50) 1 ex, C6#4 cells, experiment 1): 4.25 | pEC50 ([2]; C6#4 cells, experiment 1, read-out: G/R (EC-50) 1 ex): 2.04 | pEC50 ([2]; C6#4 cells, experiment 2, read-out: G/R (EC-50) 2 ex): 2.41 | pEC50 ([2]; C6#4 cells, experiment 3, read-out: G/R (EC-50) 3 ex): 2.25

CN(C)CCNC(=O)c1ccc(-c2cnc3c(Nc4ccc(Oc5ccccc5)cc4)nccn23)cc1 [LG2-11]
pEC50 ([1]; read-out: WST-1 (EC-50)): 4.71 | pEC50 ([1]; read-out: WST-1 (EC-50) 1 ex): 4.74 | pEC50 ([1]; read-out: WST-1 (EC-50) 2 ex): 4.78 | pEC50 ([1]; read-out: WST-1 (EC-50) 3 ex): 4.62 | pEC50 ([1]; read-out: WST-1 (EC-50) Mean): 4.71 | G/R:WST-1 Ratio Mean [2]: 2.2 and 2.237 | pEC50 ([2]; read-out: G/R (EC-50) 1 ex): 4.96 | pEC50 ([2]; read-out: G/R (EC-50) 2 ex): 4.80 | pEC50 ([2]; read-out: G/R (EC-50) 3 ex): 5.22

COc1ccc(Nc2nccn3c(-c4cccc(C(N)=O)c4)cnc23)cc1 [LG2-13]
cytotoxicity [1]: doesn't have cytotoxicity | pEC50 ([1]; read-out: WST-1 (EC-50) 1 ex): 5.15 | pEC50 ([1]; read-out: WST-1 (EC-50) 2 ex): 4.00 | pEC50 ([1]; read-out: WST-1 (EC-50) 3 ex): 4.00 | pEC50 ([2]; read-out: EC 50 G/R): 5.10 | pEC50 ([2]; read-out: G/R (EC-50) 2 ex): 5.16 | pEC50 ([2]; read-out: G/R (EC-50) 3 ex): 5.05

COc1cccc(-c2cnc3c(Nc4ccccc4)nccn23)c1 [LG2-85]
pEC50 ([1]; read-out: WST-1 (EC-50)): 4.32 | pEC50 ([1]; read-out: WST-1 (EC-50) 1 ex): 4.46 | pEC50 ([1]; read-out: WST-1 (EC-50) 2 ex): 4.38 | pEC50 ([1]; read-out: WST-1 (EC-50) 3 ex): 4.17 | pEC50 ([1]; read-out: WST-1 (EC-50) Mean): 4.32 | G/R:WST-1 Ratio Mean [2]: 2.0 and 2.033 | pEC50 ([2]; read-out: G/R (EC-50)): 4.63 | pEC50 ([2]; read-out: G/R (EC-50) 1 ex): 4.62 | pEC50 ([2]; read-out: G/R (EC-50) 2 ex): 4.64 | pEC50 ([2]; read-out: G/R (EC-50) 3 ex): 4.63 | pEC50 ([2]; read-out: G/R (REC-50) Mean): 4.63

c1ccc2c(-c3cnc4c(Nc5ccc6[nH]ccc6c5)nccn34)cccc2c1 [LG2-89]
pEC50 ([1]; read-out: WST-1 (EC-50)): 4.45 | pEC50 ([1]; read-out: WST-1 (EC-50) 1 ex): 4.67 | pEC50 ([1]; read-out: WST-1 (EC-50) 2 ex): 4.39 | pEC50 ([1]; read-out: WST-1 (EC-50) 3 ex): 4.35 | pEC50 ([1]; read-out: WST-1 (EC-50) Mean): 4.45 | G/R:WST-1 Ratio Mean [2]: 1.4 and 1.383 | pEC50 ([2]; read-out: G/R (EC-50)): 4.55 | pEC50 ([2]; read-out: G/R (EC-50) 1 ex): 4.86 | pEC50 ([2]; read-out: G/R (EC-50) 2 ex): 4.37 | pEC50 ([2]; read-out: G/R (EC-50) 3 ex): 4.57 | pEC50 ([2]; read-out: G/R (REC-50) Mean): 4.55

COc1cc(Nc2nccn3c(-c4cccc(C(C)=O)c4)cnc23)cc(OC)c1OC [LG2-75]
pEC50 ([1]; read-out: WST-1 (EC-50)): 4.78 | pEC50 ([1]; read-out: WST-1 (EC-50) 1 ex): 5.15 | pEC50 ([1]; read-out: WST-1 (EC-50) 2 ex): 4.78 | pEC50 ([1]; read-out: WST-1 (EC-50) 3 ex): 4.57 | pEC50 ([1]; read-out: WST-1 (EC-50) Mean): 4.78 | G/R:WST-1 Ratio Mean [2]: 1.2 and 1.233 | pEC50 ([2]; read-out: G/R (EC-50)): 4.83 | pEC50 ([2]; read-out: G/R (EC-50) 1 ex): 5.36 | pEC50 ([2]; read-out: G/R (EC-50) 2 ex): 4.79 | pEC50 ([2]; read-out: G/R (EC-50) 3 ex): 4.63 | pEC50 ([2]; read-out: G/R (REC-50) Mean): 4.83

c1ccc(Oc2ccc(Nc3nccn4c(-c5ccc6[nH]ccc6c5)cnc34)cc2)cc1 [LG2-7]
pEC50 ([1]; read-out: WST-1 (EC-50)): 4.45 | pEC50 ([1]; read-out: WST-1 (EC-50) 1 ex): 4.64 | pEC50 ([1]; read-out: WST-1 (EC-50) 2 ex): 4.40 | pEC50 ([1]; read-out: WST-1 (EC-50) 3 ex): 4.37 | pEC50 ([1]; read-out: WST-1 (EC-50) Mean): 4.45 | G/R:WST-1 Ratio Mean [2]: 5.6 and 5.633 | pEC50 ([2]; read-out: G/R (EC-50)): 5.04 | pEC50 ([2]; read-out: G/R (EC-50) 1 ex): 4.85 | pEC50 ([2]; read-out: G/R (EC-50) 2 ex): 5.03 | pEC50 ([2]; read-out: G/R (EC-50) 3 ex): 5.41 | pEC50 ([2]; read-out: G/R (REC-50) Mean): 5.04
